{"source": "ChEMBL document CHEMBL4477208", "about": "“Discovery and Rational Design of Pteridin-7(8H)-one-Based Inhibitors Targeting FMS-like Tyrosine Kinase 3 (FLT3) and Its Mutants” (J Med Chem, 2016)", "key": {"[1]": {"test_system": "MV4-11", "test": "Cell cycle arrest in human MV4-11 cells assessed as accumulation at G0/G1 phase at 1 nM after 48 hrs by PI/RNase staining based FACS analysis (reference value: 69.55%)", "format": "functional"}, "[2]": {"test_system": "MV4-11", "test": "Cell cycle arrest in human MV4-11 cells assessed as accumulation at G2 phase at 1 nM after 48 hrs by PI/RNase staining based FACS analysis (reference value: 13.95%)", "format": "functional"}, "[3]": {"test_system": "MV4-11", "test": "Cell cycle arrest in human MV4-11 cells assessed as accumulation at G0/G1 phase at 10 nM after 48 hrs by PI/RNase staining based FACS analysis (reference value: 69.55%)", "format": "functional"}, "[4]": {"test_system": "MV4-11", "test": "Cell cycle arrest in human MV4-11 cells assessed as accumulation at S phase at 10 nM after 48 hrs by PI/RNase staining based FACS analysis (reference value: 16.50%)", "format": "functional"}, "[5]": {"test_system": "MV4-11", "test": "Cell cycle arrest in human MV4-11 cells assessed as accumulation at S phase at 1000 nM after 48 hrs by PI/RNase staining based FACS analysis (reference value: 16.50%)", "format": "functional"}, "[6]": {"test_system": "MV4-11", "test": "Induction of apoptosis in human MV4-11 cells assessed as early apoptotic cells at 1 nM after 48 hrs by annexin V/propidium iodide staining based FACS analysis (reference value: 6.31%)", "format": "functional"}, "[7]": {"test_system": "MV4-11", "test": "Induction of apoptosis in human MV4-11 cells assessed as viable cells at 10 nM after 48 hrs by annexin V/propidium iodide staining based FACS analysis (reference value: 90.60%)", "format": "functional", "details": "MV4-11, 48 h, read-out: Activity"}, "[8]": {"test_system": "MV4-11", "test": "Induction of apoptosis in human MV4-11 cells assessed as late apoptotic cells at 10 nM after 48 hrs by annexin V/propidium iodide staining based FACS analysis (reference value: 3.01%)", "format": "functional"}, "[9]": {"test_system": "MV4-11", "test": "Induction of apoptosis in human MV4-11 cells assessed as early apoptotic cells at 100 nM after 48 hrs by annexin V/propidium iodide staining based FACS analysis (reference value: 6.31%)", "format": "functional"}, "[10]": {"test_system": "MV4-11", "test": "Induction of apoptosis in human MV4-11 cells assessed as necrotic cells at 100 nM after 48 hrs by annexin V/propidium iodide staining based FACS analysis (reference value: 0.05%)", "format": "functional"}, "[11]": {"test_system": "MV4-11", "test": "Induction of apoptosis in human MV4-11 cells assessed as necrotic cells at 1000 nM after 48 hrs by annexin V/propidium iodide staining based FACS analysis (reference value: 0.05%)", "format": "functional"}, "[12]": {"test_system": "MV4-11", "test": "Induction of apoptosis in human MV4-11 cells assessed as viable cells at 10000 nM after 48 hrs by annexin V/propidium iodide staining based FACS analysis (reference value: 90.60%)", "format": "functional", "details": "MV4-11, 48 h, read-out: Activity"}, "[13]": {"test_system": "MV4-11", "test": "Induction of apoptosis in human MV4-11 cells assessed as early apoptotic cells at 10000 nM after 48 hrs by annexin V/propidium iodide staining based FACS analysis (reference value: 6.31%)", "format": "functional"}, "[14]": {"test_system": "MV4-11", "test": "Induction of apoptosis in human MV4-11 cells assessed as apoptotic cells after 48 hrs by annexin V/propidium iodide staining based FACS analysis", "format": "functional, cell-based"}, "[15]": {"test": "Cmax in overnight fasted Sprague-Dawley rat plasma at 1 mg/kg, iv up to 24 hrs by LC-MS/MS analysis", "format": "ADME, organism-based", "set-up": "dose 1 mg/kg, route intravenous"}, "[16]": {"test": "Clearance in overnight fasted Sprague-Dawley rat plasma at 1 mg/kg, iv up to 24 hrs by LC-MS/MS analysis", "format": "ADME, organism-based"}, "[17]": {"test": "Volume of distribution at steady state in overnight fasted Sprague-Dawley rat plasma at 1 mg/kg, iv up to 24 hrs by LC-MS/MS analysis", "format": "ADME, organism-based", "details": "read-out: Vdss"}, "[18]": {"test": "Cmax in overnight fasted Sprague-Dawley rat plasma at 10 mg/kg administered via oral gavage up to 24 hrs by LC-MS/MS analysis", "format": "ADME, organism-based", "set-up": "dose 10 mg/kg, route oral"}, "[19]": {"test": "AUC (0 to infinity) in overnight fasted Sprague-Dawley rat plasma at 10 mg/kg administered via oral gavage up to 24 hrs by LC-MS/MS analysis", "format": "ADME, organism-based", "set-up": "dose 10 mg/kg, route oral, time infinity"}, "[20]": {"test": "Oral bioavailability in overnight fasted Sprague-Dawley rat plasma at 10 mg/kg administered via oral gavage up to 24 hrs by LC-MS/MS analysis", "format": "ADME, organism-based"}, "[21]": {"test_system": "MV4-11", "test": "Antiproliferative activity against human MV4-11 cells after 72 hrs by MTT assay", "format": "functional, cell-based", "details": "MV4-11, 72 h"}, "[22]": {"test_system": "THP-1", "test": "Antiproliferative activity against human THP1 cells after 72 hrs by MTT assay", "format": "functional, cell-based", "details": "THP-1, 72 h"}, "[23]": {"test_system": "MOLT-4", "test": "Antiproliferative activity against human MOLT4 cells after 72 hrs by MTT assay", "format": "functional, cell-based", "details": "MOLT-4, 72 h"}, "[24]": {"test_system": "HL-60", "test": "Antiproliferative activity against human HL60 cells after 72 hrs by MTT assay", "format": "functional, cell-based", "details": "HL-60, 72 h"}, "[25]": {"test_system": "RKO", "test": "Antiproliferative activity against human RKO cells after 72 hrs by SRB assay", "format": "functional, cell-based"}, "[26]": {"test_system": "HCT-116", "test": "Antiproliferative activity against human HCT116 cells after 72 hrs by SRB assay", "format": "functional, cell-based", "details": "HCT-116, 72 h"}, "[27]": {"test_system": "HT-29", "test": "Antiproliferative activity against human HT-29 cells after 72 hrs by SRB assay", "format": "functional, cell-based", "details": "HT-29, 72 h"}, "[28]": {"test_system": "MV4-11", "test": "Antitumor activity against human MV4-11 cells xenografted in nude BALB/c mouse assessed as tumor growth inhibition at 50 mg/kg, po qd for 14 days measured every 2 days", "format": "functional", "details": "MV4-11, po, read-out: TGI"}, "[29]": {"test_system": "MV4-11", "test": "Antitumor activity against human MV4-11 cells xenografted in nude BALB/c mouse assessed as tumor growth inhibition at 25 mg/kg, ip qd for 14 days measured every 2 days", "format": "functional", "details": "MV4-11, ip, read-out: TGI"}, "[30]": {"target": "Receptor-type tyrosine-protein kinase FLT3 (Homo sapiens, UniProt P36888, D835V)", "test": "Binding affinity to human partial length FLT3 D835V mutant (592 to 969 residues) expressed in mammalian expression system after 1 hr"}, "[31]": {"target": "Interleukin-1 receptor-associated kinase 1 (Homo sapiens) (UniProt P51617)", "sequence (P51617 whole entry, looked up)": "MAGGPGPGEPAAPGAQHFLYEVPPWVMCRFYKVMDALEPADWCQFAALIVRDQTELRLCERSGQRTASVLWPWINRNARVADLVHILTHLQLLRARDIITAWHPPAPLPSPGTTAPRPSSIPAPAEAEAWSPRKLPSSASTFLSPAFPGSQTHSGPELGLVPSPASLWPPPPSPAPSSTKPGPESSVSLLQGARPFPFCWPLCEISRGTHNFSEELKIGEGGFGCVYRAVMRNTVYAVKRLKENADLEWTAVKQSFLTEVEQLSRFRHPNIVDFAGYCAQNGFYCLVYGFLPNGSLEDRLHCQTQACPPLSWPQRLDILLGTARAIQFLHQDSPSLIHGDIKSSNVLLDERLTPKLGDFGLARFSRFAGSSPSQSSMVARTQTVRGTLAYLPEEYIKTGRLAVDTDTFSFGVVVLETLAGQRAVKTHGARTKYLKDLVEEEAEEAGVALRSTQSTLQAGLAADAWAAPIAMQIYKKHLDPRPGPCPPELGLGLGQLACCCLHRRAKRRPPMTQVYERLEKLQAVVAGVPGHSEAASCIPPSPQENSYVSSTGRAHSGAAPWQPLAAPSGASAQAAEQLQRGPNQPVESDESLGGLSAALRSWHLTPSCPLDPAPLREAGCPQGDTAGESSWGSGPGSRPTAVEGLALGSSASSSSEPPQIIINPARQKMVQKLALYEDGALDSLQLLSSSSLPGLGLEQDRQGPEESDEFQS", "test": "Inhibition of human IRAK1 expressed in mammalian system assessed as remaining enzyme activity at 1 uM relative to untreated control"}, "[32]": {"test_system": "MV4-11", "test": "Cell cycle arrest in human MV4-11 cells assessed as cell debris level at 100 nM after 48 hrs by PI/RNase staining based FACS analysis", "format": "functional"}, "[33]": {"test": "Ratio of IC50 for human WI38 cells to IC50 for human MV4-11 cells", "format": "toxicity", "details": "WI38 cells versus MV4-11 cells, read-out: Ratio IC50"}, "[34]": {"target": "Macrophage colony-stimulating factor 1 receptor (Homo sapiens) (UniProt P07333)", "sequence (P07333 whole entry)": "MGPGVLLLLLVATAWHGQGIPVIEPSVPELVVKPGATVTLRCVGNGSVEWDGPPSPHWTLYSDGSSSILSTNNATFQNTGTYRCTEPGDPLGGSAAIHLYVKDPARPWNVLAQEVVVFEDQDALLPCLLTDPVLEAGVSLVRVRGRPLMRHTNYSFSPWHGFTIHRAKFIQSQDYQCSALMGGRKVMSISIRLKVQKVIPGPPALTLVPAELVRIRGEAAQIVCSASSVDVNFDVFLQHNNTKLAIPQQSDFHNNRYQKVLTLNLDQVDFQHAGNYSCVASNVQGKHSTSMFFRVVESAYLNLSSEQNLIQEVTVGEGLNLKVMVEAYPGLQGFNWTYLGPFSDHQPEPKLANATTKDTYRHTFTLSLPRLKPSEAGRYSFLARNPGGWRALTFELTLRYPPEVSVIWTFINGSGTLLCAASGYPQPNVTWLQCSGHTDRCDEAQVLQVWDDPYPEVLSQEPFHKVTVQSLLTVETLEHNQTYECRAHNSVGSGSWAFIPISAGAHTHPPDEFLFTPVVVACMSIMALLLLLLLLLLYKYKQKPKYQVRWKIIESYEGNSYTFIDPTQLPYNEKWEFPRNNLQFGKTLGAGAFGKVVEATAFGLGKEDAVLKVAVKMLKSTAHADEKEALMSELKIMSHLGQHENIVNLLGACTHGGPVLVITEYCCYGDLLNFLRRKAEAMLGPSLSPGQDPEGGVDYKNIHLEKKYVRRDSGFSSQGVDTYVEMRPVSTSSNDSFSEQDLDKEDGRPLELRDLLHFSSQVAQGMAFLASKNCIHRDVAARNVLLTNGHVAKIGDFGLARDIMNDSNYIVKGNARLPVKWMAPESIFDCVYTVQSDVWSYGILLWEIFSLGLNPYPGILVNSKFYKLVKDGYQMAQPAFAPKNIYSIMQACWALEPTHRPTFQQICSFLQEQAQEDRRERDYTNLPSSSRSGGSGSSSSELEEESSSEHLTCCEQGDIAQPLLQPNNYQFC", "test": "Inhibition of human CSF1R expressed in bacterial system assessed as remaining enzyme activity at 1 uM relative to untreated control"}, "[35]": {"target": "Platelet-derived growth factor receptor beta (Homo sapiens) (UniProt P09619)", "sequence (P09619 whole entry)": "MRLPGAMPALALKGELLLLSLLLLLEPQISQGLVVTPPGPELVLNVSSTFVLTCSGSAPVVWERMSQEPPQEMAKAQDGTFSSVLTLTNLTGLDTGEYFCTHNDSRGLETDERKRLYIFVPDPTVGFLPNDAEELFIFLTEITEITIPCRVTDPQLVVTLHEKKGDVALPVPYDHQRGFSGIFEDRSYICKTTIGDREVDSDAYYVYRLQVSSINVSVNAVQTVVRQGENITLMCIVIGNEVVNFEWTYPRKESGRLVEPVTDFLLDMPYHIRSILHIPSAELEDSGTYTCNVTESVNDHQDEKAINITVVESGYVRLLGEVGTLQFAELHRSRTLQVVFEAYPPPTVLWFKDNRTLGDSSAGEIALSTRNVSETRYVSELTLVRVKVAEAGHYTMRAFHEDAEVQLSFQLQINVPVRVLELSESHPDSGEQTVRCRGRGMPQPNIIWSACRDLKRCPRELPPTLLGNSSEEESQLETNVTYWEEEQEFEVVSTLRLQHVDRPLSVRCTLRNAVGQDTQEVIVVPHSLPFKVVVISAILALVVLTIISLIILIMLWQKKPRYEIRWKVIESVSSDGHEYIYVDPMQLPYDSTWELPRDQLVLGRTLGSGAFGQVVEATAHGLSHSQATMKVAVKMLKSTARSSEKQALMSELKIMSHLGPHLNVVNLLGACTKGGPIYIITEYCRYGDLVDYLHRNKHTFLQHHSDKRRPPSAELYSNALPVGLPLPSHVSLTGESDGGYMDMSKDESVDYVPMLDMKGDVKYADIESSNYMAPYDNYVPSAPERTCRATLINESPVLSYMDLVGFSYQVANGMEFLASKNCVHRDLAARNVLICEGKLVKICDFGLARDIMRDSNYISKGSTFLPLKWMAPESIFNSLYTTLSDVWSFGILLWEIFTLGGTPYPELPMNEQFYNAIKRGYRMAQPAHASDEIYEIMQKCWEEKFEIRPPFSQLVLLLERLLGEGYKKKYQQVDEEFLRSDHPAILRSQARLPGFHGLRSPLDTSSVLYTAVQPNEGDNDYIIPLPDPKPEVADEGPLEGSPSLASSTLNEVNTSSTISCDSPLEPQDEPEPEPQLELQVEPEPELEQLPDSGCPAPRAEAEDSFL", "test": "Inhibition of human PDGFRB expressed in bacterial system assessed as remaining enzyme activity at 1 uM relative to untreated control"}, "[36]": {"test_system": "Receptor-type tyrosine-protein kinase FLT3 (Homo sapiens), P36888 [UNDEFINED MUTATION]", "test": "Inhibition of human FLT3 ITD mutant expressed in bacterial system assessed as remaining enzyme activity at 1 uM relative to untreated control"}, "[37]": {"test_system": "K562", "test": "cells", "details": "Homo sapiens, K562, 72 h", "description": "Antiproliferative activity against FLT3-deficient human K562 cells after 72 hrs by MTT assay"}}}
{"compound": "Cc1cc(Nc2ncc3ncc(=O)n(-c4ccc(N)cc4)c3n2)ccc1N1CCN(C)CC1", "values": [{"measurement": "Activity", "setting": "[1]", "value": 65.64, "unit": "%"}, {"measurement": "Activity", "setting": "[2]", "value": 12.59, "unit": "%"}, {"measurement": "Activity", "setting": "[3]", "value": 70.2, "unit": "%"}, {"measurement": "Activity", "setting": "[4]", "value": 18.4, "unit": "%"}, {"measurement": "Activity", "setting": "[5]", "value": 3.07, "unit": "%"}, {"measurement": "Activity", "setting": "[6]", "value": 6.09, "unit": "%"}, {"measurement": "viability at 0.01 µM", "setting": "[7]", "value": 86.9, "unit": "%"}, {"measurement": "Activity", "setting": "[8]", "value": 3.34, "unit": "%"}, {"measurement": "Activity", "setting": "[9]", "value": 23, "unit": "%"}, {"measurement": "Activity", "setting": "[10]", "value": 0.25, "unit": "%"}, {"measurement": "Activity", "setting": "[11]", "value": 0.05, "unit": "%"}, {"measurement": "viability at 10 µM", "setting": "[12]", "value": 0.02, "unit": "%"}, {"measurement": "Activity", "setting": "[13]", "value": 68.6, "unit": "%"}, {"measurement": "Activity", "setting": "[14]", "value": "Dose-dependent effect"}, {"measurement": "Cmax", "setting": "[15]", "value": 55.2, "unit": "ng/mL"}, {"measurement": "clearance", "setting": "[16]", "value": 142, "unit": "mL/min/kg"}, {"measurement": "Vd", "setting": "[17]", "value": 27.7, "unit": "L/kg"}, {"measurement": "Cmax", "setting": "[18]", "value": 41, "unit": "ng/mL"}, {"measurement": "AUC(0-inf)", "setting": "[19]", "value": 311, "unit": "ng·h/mL"}, {"measurement": "bioavailability", "setting": "[20]", "value": 26.4, "unit": "%"}, {"measurement": "IC50", "setting": "[21]", "value": 0.051, "unit": "µM"}, {"measurement": "IC50", "setting": "[22]", "value": "> 10", "unit": "µM"}, {"measurement": "IC50", "setting": "[23]", "value": 2.12, "unit": "µM"}, {"measurement": "IC50", "setting": "[24]", "value": 1.38, "unit": "µM"}, {"measurement": "IC50", "setting": "[25]", "value": 1.93, "unit": "µM"}, {"measurement": "IC50", "setting": "[26]", "value": 2.36, "unit": "µM"}, {"measurement": "IC50", "setting": "[27]", "value": 3.02, "unit": "µM"}, {"measurement": "inhibition in vivo at 50 mg/kg", "setting": "[28]", "value": 128, "unit": "%"}, {"measurement": "inhibition in vivo at 25 mg/kg", "setting": "[29]", "value": 129, "unit": "%"}, {"measurement": "Kd", "setting": "[30]", "value": 0.00025, "unit": "µM"}, {"measurement": "Activity", "setting": "[31]", "value": "< 1", "unit": "%"}, {"measurement": "Activity", "setting": "[32]", "value": 12.02, "unit": "%"}, {"measurement": "selectivity ratio", "setting": "[33]", "value": "33 to 81"}, {"measurement": "Activity", "setting": "[34]", "value": "< 1", "unit": "%"}, {"measurement": "Activity", "setting": "[35]", "value": "< 1", "unit": "%"}, {"measurement": "Activity", "setting": "[36]", "value": "< 1", "unit": "%"}, {"measurement": "IC50", "setting": "[37]", "value": "> 10", "unit": "µM"}]}
